Data: BindingDB's records for patent US20250313563 (The Broad Institute, 2025)
“And” between values parts separate entries of the source, which are not always exact repeats. Identical values can stand only once.

Key:
[1] = target: Glycogen synthase kinase-3 beta (Homo sapiens, UniProt P49841); experiment: TR-FRET Assay
Summary of the method: (§1)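 Enzyme and test compound were first incubated together for 30 minutes in assay buffer. The kinase reaction followed and was stopped with EDTA. The pSer641 signal was read by time-resolved FRET.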

[2] = target: Glycogen synthase kinase-3 alpha (Homo sapiens, UniProt P49840); experiment: TR-FRET Assay
Chain of Glycogen synthase kinase-3 alpha (P49840 whole entry): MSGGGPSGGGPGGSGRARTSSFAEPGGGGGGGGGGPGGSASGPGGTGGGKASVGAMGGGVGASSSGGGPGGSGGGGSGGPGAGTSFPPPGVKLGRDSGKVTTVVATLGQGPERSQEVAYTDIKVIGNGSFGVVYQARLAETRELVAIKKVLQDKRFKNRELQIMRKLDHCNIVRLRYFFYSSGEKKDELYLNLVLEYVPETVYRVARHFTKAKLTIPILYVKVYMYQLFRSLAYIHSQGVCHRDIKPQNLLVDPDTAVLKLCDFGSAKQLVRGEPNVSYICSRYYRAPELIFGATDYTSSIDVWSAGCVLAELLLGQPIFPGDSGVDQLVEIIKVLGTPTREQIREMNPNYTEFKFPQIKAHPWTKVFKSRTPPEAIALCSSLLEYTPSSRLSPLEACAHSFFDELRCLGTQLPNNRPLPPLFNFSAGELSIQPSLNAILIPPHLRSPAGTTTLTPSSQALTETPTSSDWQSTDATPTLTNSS
Summary of the method: as §1

Chain of Glycogen synthase kinase-3 beta (P49841 whole entry): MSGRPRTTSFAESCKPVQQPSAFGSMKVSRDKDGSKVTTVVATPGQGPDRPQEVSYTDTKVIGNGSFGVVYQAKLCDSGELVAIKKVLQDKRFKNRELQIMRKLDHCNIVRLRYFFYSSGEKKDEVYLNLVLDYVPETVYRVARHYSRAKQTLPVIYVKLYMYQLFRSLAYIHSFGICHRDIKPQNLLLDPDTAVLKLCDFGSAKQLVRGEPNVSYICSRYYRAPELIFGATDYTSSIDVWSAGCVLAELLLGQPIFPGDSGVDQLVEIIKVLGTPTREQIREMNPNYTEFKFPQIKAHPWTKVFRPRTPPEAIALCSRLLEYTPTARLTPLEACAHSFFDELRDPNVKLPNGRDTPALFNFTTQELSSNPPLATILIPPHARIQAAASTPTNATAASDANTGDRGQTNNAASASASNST

| SMILES | IC50 [1] | IC50 [2] |
| --- | --- | --- |
| CC1(C)CC(=O)C2=C(C1)NC1=C(CN=N1)C21COC2(CCC2)C1 (stereo not drawn) [US20250313563, Compound 911973] | 100 to 1000 nM | 100 to 1000 nM |
| CC[C@]1(c2cccc(N(C)c3cccnn3)c2)C2=CN=NC2NC2=C1C(=O)CC(C)(C)C2 (stereo partly drawn) [US20250313563, Compound 911975] | 1000 to 5000 nM | 100 to 1000 nM |
| CC[C@]1(c2cccc(N(C)c3ncccn3)c2)C2=CN=NC2NC2=C1C(=O)CC(C)(C)C2 (stereo partly drawn) [US20250313563, Compound 911980] | < 100 nM and 100 to 1000 nM | < 100 nM |
| CC[C@]1(c2cccc(-c3ccnc(OC)c3)c2)C2=CN=NC2NC2=C1C(=O)CC(C)(C)C2 (stereo partly drawn) [US20250313563, Compound 911988] | 100 to 1000 nM and > 5000 nM | < 100 nM and 100 to 1000 nM |
| CC[C@]1(c2cccc(-c3c(C)nn(C)c3C)c2)C2=CN=NC2NC2=C1C(=O)CC(C)(C)C2 (stereo partly drawn) [US20250313563, Compound 911990] | < 100 nM and 100 to 1000 nM | < 100 nM |
| CC[C@@]1(c2cccc(-c3ccnn3C)c2)C2=CN=NC2NC2=C1C(=O)CC(C)(C)C2 (stereo partly drawn) [US20250313563, Compound 911993] | 100 to 1000 nM | < 100 nM |
| CC[C@]1(c2cccc(N3CCc4ccncc43)c2)C2=CN=NC2NC2=C1C(=O)CC(C)(C)C2 (stereo partly drawn) [US20250313563, Compound 912003] | 100 to 1000 nM | < 100 nM |
| CC[C@]1(c2cccc(C(F)(F)F)c2)C2=CN=NC2NC2=C1C(=O)N(Cc1ccccc1)CC2 (stereo partly drawn) [US20250313563, Compound 912005] | 1000 to 5000 nM | 100 to 1000 nM |
| CC[C@@]1(c2cccc(C(F)(F)F)c2)C2=CN=NC2NC2=C1C(=O)N(Cc1ccccc1)CC2 (stereo partly drawn) [US20250313563, Compound 912006] | > 5000 nM | > 5000 nM |
| CCC1(c2cccc(N(CCc3ccccc3)C(C)=O)c2)C2=CN=NC2NC2=C1C(=O)CC(C)(C)C2 (stereo not drawn) [US20250313563, Compound 912064] | < 100 nM | < 100 nM |
| CCC1(c2cccc(N(C)C(=O)C3CCCCC3)c2)C2=CN=NC2NC2=C1C(=O)CC(C)(C)C2 (stereo not drawn) [US20250313563, Compound 912065] | 100 to 1000 nM | < 100 nM |
| CCC1(c2cccc(N(C)C(=O)CCc3ccccc3)c2)C2=CN=NC2NC2=C1C(=O)CC(C)(C)C2 (stereo not drawn) [US20250313563, Compound 912066] | 100 to 1000 nM | < 100 nM |
| CCC1(c2cccc(N(C)C(O)C3CC3)c2)C2=CN=NC2NC2=C1C(=O)CC(C)(C)C2 (stereo not drawn) [US20250313563, Compound 912067] | < 100 nM | < 100 nM |
| CCC1(c2cccc(N(C)C(=O)c3cnn(C)c3)c2)C2=CN=NC2NC2=C1C(=O)CC(C)(C)C2 (stereo not drawn) [US20250313563, Compound 912068] | 100 to 1000 nM | < 100 nM |
| CCC1(c2cccc(N(C(C)=O)C3CCCC3)c2)C2=CN=NC2NC2=C1C(=O)CC(C)(C)C2 (stereo not drawn) [US20250313563, Compound 912069] | < 100 nM | < 100 nM |
| CCC1(c2cccc(N(C)C(=O)C3CCOCC3)c2)C2=CN=NC2NC2=C1C(=O)CC(C)(C)C2 (stereo not drawn) [US20250313563, Compound 912070] | 100 to 1000 nM | < 100 nM |
| CCC1(c2cccc(N(C)C(=O)Cc3ccccc3)c2)C2=CN=NC2NC2=C1C(=O)CC(C)(C)C2 (stereo not drawn) [US20250313563, Compound 912071] | < 100 nM | < 100 nM |
| CC1N=NC2=C1C1(CCOCC1)C1=C(CC(C)(C)C(F)C1=O)N2 (stereo not drawn) [US20250313563, Compound 912072] | 100 to 1000 nM | 100 to 1000 nM |
| CC1(C)CC(=O)C2=C(C1)NC1=C(CN=N1)C21CN(CC(F)F)C1 [US20250313563, Compound 912073] | 100 to 1000 nM | 100 to 1000 nM |
| CC1(C)CC(=O)C2=C(C1)NC1=C(CN=N1)C21CN(CC(F)(F)F)C1 [US20250313563, Compound 912074] | 100 to 1000 nM | < 100 nM |
| CC1(C)CC(=O)C2=C(C1)NC1=C(CN=N1)C21CNC1 [US20250313563, Compound 912075] | > 5000 nM | 1000 to 5000 nM |
| CC1(C)CC(=O)C2=C(C1)NC1=C(CN=N1)C21CN(C2COC2)C1 [US20250313563, Compound 912076] | 1000 to 5000 nM | 100 to 1000 nM |
| CC1(C)CC(=O)C2=C(C1)NC1=C(CN=N1)C21CN(c2ccncc2)C1 [US20250313563, Compound 912077] | > 5000 nM | > 5000 nM |
| C[C@H]1CC(=O)C2=C(C1)NC1=C(CN=N1)C21CCOCC1 [US20250313563, Compound 912078] | 100 to 1000 nM | 100 to 1000 nM |

Other lines, results leading:

| IC50 [1] | IC50 [2] | SMILES |
| --- | --- | --- |
| 100 to 1000 nM | 100 to 1000 nM | C[C@@H]1CC(=O)C2=C(C1)NC1=C(CN=N1)C21CCOCC1 [US20250313563, Compound 912079] |
| 100 to 1000 nM | 100 to 1000 nM | O=C1C2=C(NC3N=NC=C3C23CCOCC3)[C@H]2CC[C@@H]1C2 (stereo partly drawn) [US20250313563, Compound 912080] |
| 1000 to 5000 nM | 100 to 1000 nM | O=C1C2=C(NC3N=NC=C3C23CCOCC3)[C@@H]2CC[C@H]1C2 (stereo partly drawn) [US20250313563, Compound 912081] |
| 100 to 1000 nM | 100 to 1000 nM | CC[C@]1(c2cccc([C@@H]3CCOC(C)(C)C3)c2)C2=CN=NC2NC2=C1C(=O)CC(C)(C)C2 (stereo partly drawn) [US20250313563, Compound 912089] |
| > 5000 nM | > 5000 nM | CC[C@@]1(c2cccc([C@@H]3CCOC(C)(C)C3)c2)C2=CN=NC2NC2=C1C(=O)CC(C)(C)C2 (stereo partly drawn) [US20250313563, Compound 912091] |
| < 100 nM | < 100 nM | CC1(C)CC(=O)C2=C(C1)NC1=C(CN=N1)C21CCN(S(C)(=O)=O)C1 (stereo not drawn) [US20250313563, Compound 912092] |
| > 5000 nM | 1000 to 5000 nM | CC1(C)CC(=O)C2=C(C1)NC1=C(CN=N1)C21COCCOC1 [US20250313563, Compound 912094] |
| 100 to 1000 nM | < 100 nM | CC[C@]1(c2cccc(C(F)(F)F)c2)C2=CN=NC2NC2=C1C(=O)N[C@H](C)C2 (stereo partly drawn) [US20250313563, Compound 912096] |
| > 5000 nM | 100 to 1000 nM | CC[C@]1(c2cccc(C(F)(F)F)c2)C2=CN=NC2NC2=C1C(=O)N[C@@H](C)C2 (stereo partly drawn) [US20250313563, Compound 912097] |
| 100 to 1000 nM | < 100 nM | CC[C@@]1(c2cccc(C(F)(F)F)c2)C2=CN=NC2NC2=C1C(=O)N[C@H](C)C2 (stereo partly drawn) [US20250313563, Compound 912098] |
| > 5000 nM | > 5000 nM | CC[C@@]1(c2cccc(C(F)(F)F)c2)C2=CN=NC2NC2=C1C(=O)N[C@@H](C)C2 (stereo partly drawn) [US20250313563, Compound 912099] |
| 100 to 1000 nM | < 100 nM | CCC1(c2cccc(C(F)(F)F)c2)C2=C(N=NC2)NC2=C1C(=O)NC2(C)C (stereo not drawn) [US20250313563, Compound 912104] |
| > 5000 nM | > 5000 nM | CC1(C)CC(=O)C2=C(C1)NC1=C(CN=N1)C21CCCCC1=O (stereo not drawn) [US20250313563, Compound 912105] |
| 1000 to 5000 nM | 100 to 1000 nM | CC1(C)CC(=O)C2=C(C1)NC1=C(CN=N1)[C@]21CCO[C@@H](C(C)(C)C)C1 [US20250313563, Compound 912106] |
| > 5000 nM | > 5000 nM | CC1(C)CC(=O)C2=C(C1)NC1=C(CN=N1)[C@@]21CCO[C@H](C(C)(C)C)C1 [US20250313563, Compound 912107] |
| 100 to 1000 nM | 100 to 1000 nM | CC1(C)CC(=O)C2=C(C1)NC1=C(CN=N1)[C@]21CCO[C@H](C(C)(C)C)C1 [US20250313563, Compound 912112] |
| 1000 to 5000 nM | 1000 to 5000 nM | CC1(C)CC(=O)C2=C(C1)NC1=C(CN=N1)[C@@]21CCO[C@@H](C(C)(C)C)C1 [US20250313563, Compound 912113] |
| < 100 nM | < 100 nM | CCC1(c2cccc(N(CC3CCCC3)C(C)=O)c2)C2=CN=NC2NC2=C1C(=O)CC(C)(C)C2 (stereo not drawn) [US20250313563, Compound 912166] |
| 1000 to 5000 nM | 100 to 1000 nM | CCC1(c2cccc(N(C)C(=O)C3CCN(C)CC3)c2)C2=CN=NC2NC2=C1C(=O)CC(C)(C)C2 (stereo not drawn) [US20250313563, Compound 912167] |
| > 5000 nM | > 5000 nM | CC1(C)CC(=O)C2=C(C1)NC1=C(CN=N1)C21CC2(COC2)C1 [US20250313563, Compound 912168] |
| < 100 nM | < 100 nM | CCC1(c2cccc(S(=O)(=O)C(C)C)c2)C2=CN=NC2NC2=C1C(=O)CC(C)(C)C2 (stereo not drawn) [US20250313563, Compound 912169] |
| > 5000 nM | 1000 to 5000 nM | CC1(C)CC(=O)C2=C(C1)NC1=C(CN=N1)C21CS(=O)(=O)C1 [US20250313563, Compound 912170] |
| 100 to 1000 nM | 100 to 1000 nM | COC[C@H]1C[C@@]2(C1)C1=C(N=NC1)NC1=C2C(=O)CC(C)(C)C1 [US20250313563, Compound 912173] |
| > 5000 nM | > 5000 nM | CC[C@]1(c2cccc(C(F)(F)F)c2)C2=CN=NC2NC2=C1C(=O)N(CC(F)(F)F)CC2 (stereo partly drawn) [US20250313563, Compound 912205] |
| > 5000 nM | 1000 to 5000 nM | CC1(C)CC(=O)C2=C(C1)NC1=C(CN=N1)C21CCC2(CCC(=O)N2C(=O)OC(C)(C)C)CC1 (stereo not drawn) [US20250313563, Compound 912217] |
| 1000 to 5000 nM | 100 to 1000 nM | CC[C@]1(c2cccc(C(F)(F)F)c2)C2=CN=NC2NC2=C1C(=O)NCC2 (stereo partly drawn) [US20250313563, Compound 912622] |
| > 5000 nM | > 5000 nM | CC[C@@]1(c2cccc(C(F)(F)F)c2)C2=CN=NC2NC2=C1C(=O)NCC2 (stereo partly drawn) [US20250313563, Compound 912668] |
| 1000 to 5000 nM | 100 to 1000 nM | CC1(C)CC(=O)C2=C(C1)NC1=C(CN=N1)C21COC2(CN(S(=O)(=O)c3ccccc3)C2)C1 (stereo not drawn) [US20250313563, Compound 913002] |
| > 5000 nM | > 5000 nM | CC[C@]1(c2cccc(C(F)(F)F)c2)C2=CN=NC2NC2=C1C(=O)NC(C)(C)C2 (stereo partly drawn) [US20250313563, Compound 913004] |
| < 100 nM | < 100 nM | CC[C@@]1(c2cccc(-c3ccncc3)c2)C2=C(CC(C)(C)CC2=O)NC2N=NC(C)=C21 (stereo partly drawn) [US20250313563, Compound 913015] |
